In PubChem BioAssay (NCI):
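A five-concentration, 48-hour dose response in 96-well plates underlies each endpoint, interpolated linearly between surrounding concentrations. The concentration for full growth arrest is given as TGI.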

Columns and labels:
Test in all cases: DTP human tumour cell line panel, 48 h
[1] = test system: 786-0 renal
[2] = test system: A498 renal
[3] = test system: A549 NSCLC
[4] = test system: ACHN renal
[5] = test system: BT-549 breast
[6] = test system: CAKI-1 renal
[7] = test system: CCRF-CEM leukemia
[8] = test system: COLO 205 colon
[9] = test system: DU-145 prostate
[10] = test system: EKVX NSCLC
[11] = test system: HCC-2998 colon
[12] = test system: HCT-116 colon
[13] = test system: HCT-15 colon
[14] = test system: HL-60(TB) leukemia
[15] = test system: HOP-62 NSCLC
[16] = test system: HOP-92 NSCLC
[17] = test system: HS 578T breast
[18] = test system: HT29 colon
[19] = test system: IGROV1 ovarian
[20] = test system: K-562 leukemia
[21] = test system: KM12 colon
[22] = test system: LOX IMVI melanoma
[23] = test system: M14 melanoma
[24] = test system: MALME-3M melanoma
[25] = test system: MCF7 breast
[26] = test system: MDA-MB-231 breast
[27] = test system: MDA-MB-435
[28] = test system: MDA-N
[29] = test system: NCI-H226 lung
[30] = test system: NCI-H23 lung
[31] = test system: NCI-H460 lung
[32] = test system: NCI-H522 lung
[33] = test system: NCI/ADR-RES ovarian
[34] = test system: OVCAR-3 ovarian
[35] = test system: OVCAR-4 ovarian
[36] = test system: OVCAR-5 ovarian
[37] = test system: OVCAR-8 ovarian
[38] = test system: PC-3 prostate
[39] = test system: RPMI-8226 leukemia
[40] = test system: RXF 393 renal
[41] = test system: SF-268 CNS
[42] = test system: SF-295 CNS
[43] = test system: SF-539 CNS
[44] = test system: SK-MEL-2 melanoma
[45] = test system: SK-MEL-28 melanoma
[46] = test system: SK-MEL-5 melanoma
[47] = test system: SK-OV-3 ovarian
[48] = test system: SN12C renal
[49] = test system: SNB-19 CNS
[50] = test system: SNB-75 CNS
[51] = test system: SR leukemia
[52] = test system: SW-620 colon
[53] = test system: T-47D breast
[54] = test system: TK-10 renal
[55] = test system: U251 CNS
[56] = test system: UACC-257 melanoma
[57] = test system: UACC-62 melanoma
[58] = test system: UO-31 renal

N#C/C(=C/N1C(=O)/C(=C/c2ccc([N+](=O)[O-])cc2)SC1=S)c1nc2ccccc2s1
TGI [1]: > 100 µM | TGI [2]: 33.2 µM | TGI [3]: > 100 µM | TGI [4]: 55.3 µM | TGI [5]: 73.7 µM | TGI [6]: > 100 µM | TGI [7]: > 100 µM | TGI [8]: 30 µM | TGI [9]: > 100 µM | TGI [10]: 61.4 µM | TGI [11]: 29.9 µM | TGI [12]: 32.7 µM | TGI [13]: > 100 µM | TGI [14]: > 100 µM | TGI [15]: 7.32 µM | TGI [16]: 63.3 µM | TGI [17]: > 100 µM | TGI [18]: > 100 µM | TGI [19]: > 100 µM | TGI [20]: > 100 µM | TGI [21]: > 100 µM | TGI [22]: > 100 µM | TGI [23]: 98.5 µM | TGI [24]: 73.3 µM | TGI [25]: 83.2 µM | TGI [26]: 37 µM | TGI [27]: > 100 µM | TGI [28]: > 100 µM | TGI [29]: 78.4 µM | TGI [30]: 89.1 µM | TGI [31]: 43.8 µM | TGI [32]: 53.8 µM | TGI [33]: > 100 µM | TGI [34]: 15.9 µM | TGI [35]: > 100 µM | TGI [36]: 80.8 µM | TGI [37]: > 100 µM | TGI [38]: 40.4 µM | TGI [39]: 68.7 µM | TGI [40]: 52.6 µM | TGI [41]: > 100 µM | TGI [42]: 33.9 µM | TGI [43]: > 100 µM | TGI [44]: 36 µM | TGI [45]: > 100 µM | TGI [46]: 26.9 µM | TGI [47]: 43.6 µM | TGI [48]: 81 µM | TGI [49]: > 100 µM | TGI [50]: 69.2 µM | TGI [51]: > 100 µM | TGI [52]: > 100 µM | TGI [53]: 69.5 µM | TGI [54]: 66.9 µM | TGI [55]: 41.7 µM | TGI [56]: 40.5 µM | TGI [57]: 24 µM | TGI [58]: 63.3 µM

CCOC(=O)NC(C(F)(F)F)(C(F)(F)F)P(=O)(OCC(C)C)OCC(C)C
TGI [2]: > 100 µM | TGI [3]: > 100 µM | TGI [4]: 52.8 µM | TGI [5]: 29 µM | TGI [6]: > 100 µM | TGI [7]: > 100 µM | TGI [8]: 31 µM | TGI [9]: > 100 µM | TGI [10]: 74.6 µM | TGI [11]: > 100 µM | TGI [12]: 16.6 µM | TGI [13]: 17.1 µM | TGI [14]: 22.4 µM | TGI [15]: > 100 µM | TGI [16]: 36.7 µM | TGI [17]: 56.5 µM | TGI [18]: 33.8 µM | TGI [19]: 51.5 µM | TGI [20]: > 100 µM | TGI [21]: > 100 µM | TGI [22]: 20.6 µM | TGI [23]: 26.1 µM | TGI [24]: 60.7 µM | TGI [25]: 21.1 µM | TGI [26]: 39 µM | TGI [27]: > 100 µM | TGI [28]: 27.1 µM | TGI [29]: 32.6 µM | TGI [31]: > 100 µM | TGI [32]: 11.6 µM | TGI [33]: 47 µM | TGI [34]: 64 µM | TGI [36]: 58.7 µM | TGI [37]: 31.4 µM | TGI [38]: > 100 µM | TGI [39]: > 100 µM | TGI [40]: 24.5 µM | TGI [41]: 57.3 µM | TGI [42]: > 100 µM | TGI [43]: 48.8 µM | TGI [44]: 43 µM | TGI [45]: 54.2 µM | TGI [46]: 24.9 µM | TGI [47]: 66.9 µM | TGI [48]: 49 µM | TGI [49]: > 100 µM | TGI [50]: 97.1 µM | TGI [51]: > 100 µM | TGI [52]: 17.2 µM | TGI [53]: > 100 µM | TGI [54]: 65.8 µM | TGI [55]: > 100 µM | TGI [57]: 29.4 µM | TGI [58]: 30.3 µM
